In PubChem BioAssay AID276 (DTP/NCI, 2004):
Where “and” joins values, the source holds several entries; their conditions need not be identical. Identical values can stand only once. Toxic doses and inconclusive results are not listed.

System: B6C3F1 mice, Lewis lung carcinoma iv, survival T/C
Assay: NCI In Vivo Anticancer Drug Screen. Data for tumor model Lewis Lung Carcinoma (intravenous) in B6C3F1 mice
Details: endpoint: median survival time, schedule: Q01DX009 (ip), higher = longer survival
Outline: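 T/C ratio derived from survival of compound-treated versus vehicle-treated mice bearing transplantable tumors.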

[1] = dose: 25.0 mg/kg/injection, vehicle: saline with Tween-80
[2] = dose: 50.0 mg/kg/injection, vehicle: saline with Tween-80
[3] = dose: 1.0 mg/kg/injection, vehicle: saline with Tween-80
[4] = dose: 6.25 mg/kg/injection, vehicle: Klucel (hydroxypropylcellulose) (HPC)
[5] = dose: 12.5 mg/kg/injection, vehicle: Klucel (hydroxypropylcellulose) (HPC)
[6] = dose: 25.0 mg/kg/injection, vehicle: Klucel (hydroxypropylcellulose) (HPC)
[7] = dose: 50.0 mg/kg/injection, vehicle: Klucel (hydroxypropylcellulose) (HPC)
[8] = dose: 100.0 mg/kg/injection, vehicle: Klucel (hydroxypropylcellulose) (HPC)
[9] = dose: 12.5 mg/kg/injection, vehicle: saline
[10] = dose: 25.0 mg/kg/injection, vehicle: saline
[11] = dose: 100.0 mg/kg/injection, vehicle: saline
[12] = dose: 200.0 mg/kg/injection, vehicle: saline
[13] = dose: 50.0 mg/kg/injection, vehicle: saline
[14] = dose: 1.25 mg/kg/injection, vehicle: saline with Tween-80
[15] = dose: 2.5 mg/kg/injection, vehicle: saline with Tween-80
[16] = dose: 5.0 mg/kg/injection, vehicle: saline with Tween-80
[17] = dose: 10.0 mg/kg/injection, vehicle: saline with Tween-80

In the case of `O=C(NC1CCCCC1)OCc1c(COC(=O)NC2CCCCC2)c(-c2ccc(Cl)c(Cl)c2)n2c1CCC2`, the T/C [1] is reported as 100 % of control and 108 % of control, the T/C [2] is reported as 102 % of control and 105 % of control and the T/C (dose: 100.0 mg/kg/injection, vehicle: saline with Tween-80) is reported as 95 % of control and 108 % of control. For the same compound, the T/C (dose: 200.0 mg/kg/injection, vehicle: saline with Tween-80) was 106 % of control and 113 % of control and the T/C (dose: 400.0 mg/kg/injection, vehicle: saline with Tween-80) was 110 % of control and 120 % of control.
In the case of `COc1ccc(CC2C(=O)NC(C)C(=O)N(C)C3Cc4ccc(cc4)Oc4cc(ccc4O)CC(C(=O)NC(C)C(=O)NC(C)C(=O)N2C)N(C)C3=O)cc1` (stereo unspecified), the T/C (dose: 0.25 mg/kg/injection, vehicle: saline with Tween-80) is reported as 110 % of control, the T/C (dose: 0.5 mg/kg/injection, vehicle: saline with Tween-80) is reported as 107 % of control and the T/C [3] is reported as 106 % of control. The T/C (dose: 2.0 mg/kg/injection, vehicle: saline with Tween-80) was 106 % of control.
In the case of `CC(C)CC(=O)NC(C(=O)NC(C(=O)NC(CC(C)C)C(O)CC(=O)NC(C)C(=O)NC(CC(C)C)C(O)CC(=O)O)C(C)C)C(C)C` (stereo unspecified), the T/C (dose: 3.12 mg/kg/injection, vehicle: Klucel (hydroxypropylcellulose) (HPC)) is reported as 95 % of control, the T/C [4] is reported as 99 % of control and the T/C [5] is reported as 95 % of control. For the same compound, the T/C [6] was 97 % of control, the T/C [7] was 97 % of control and the T/C [8] was 95 % of control.
For `NC1=NC(=O)N2CC12` (stereo unspecified), the T/C [9] was 110 % of control, the T/C [10] was 110 % of control and the T/C [11] was 110 % of control. For the same compound, the T/C [12] was 109 % of control.
In the case of `O=C(NO)c1cc(O)c(O)c(O)c1`, the T/C (dose: 25.0 mg/kg/injection, vehicle: water) is reported as 100 % of control, the T/C (dose: 50.0 mg/kg/injection, vehicle: water) is reported as 98 % of control and the T/C (dose: 100.0 mg/kg/injection, vehicle: water) is reported as 100 % of control. The T/C (dose: 200.0 mg/kg/injection, vehicle: water) was 110 % of control and the T/C (dose: 400.0 mg/kg/injection, vehicle: water) was 93 % of control.
For `O=NN(CCCl)C(=O)NC1CCC(=O)NC1=O` (stereo unspecified), the T/C [3] was 113 % of control, the T/C (dose: 4.0 mg/kg/injection, vehicle: saline with Tween-80) was 225 % of control and the T/C (dose: 8.0 mg/kg/injection, vehicle: saline with Tween-80) was 312 % of control. For the same compound, the T/C (dose: 16.0 mg/kg/injection, vehicle: saline with Tween-80) was 93 % of control.
In the case of `C=CCOCC1CO1` (stereo unspecified), the T/C [9] is reported as 105 % of control, the T/C [10] is reported as 100 % of control and the T/C [13] is reported as 99 % of control. For the same compound, the T/C [11] was 104 % of control and the T/C [12] was 115 % of control.
`COc1cccc2c1C(=O)c1c(O)c3c(c(O)c1C2=O)CC(O)(C(=O)CO)CC3OC1CC(N)C(O)C(C)O1` (stereo unspecified) was tested, and the T/C (dose: 1.56 mg/kg/injection, vehicle: saline) was 110 % of control, the T/C (dose: 1.87 mg/kg/injection, vehicle: water) was 107 % of control and the T/C (dose: 3.12 mg/kg/injection, vehicle: saline) was 109 % of control. The T/C (dose: 3.75 mg/kg/injection, vehicle: water) was 107 % of control, the T/C (dose: 4.5 mg/kg/injection, vehicle: water) was 101 % of control and the T/C (dose: 6.25 mg/kg/injection, vehicle: saline) was 123 % of control. The T/C (dose: 7.5 mg/kg/injection, vehicle: water) was 109 % of control, the T/C (dose: 9.0 mg/kg/injection, vehicle: water) was 112 % of control and the T/C (dose: 15.0 mg/kg/injection, vehicle: water) was 119 % of control. The T/C (dose: 18.0 mg/kg/injection, vehicle: water) was 123 % of control, the T/C [10] was 119 % of control and the T/C [13] was 90 % of control.
With `O=NN(CCCl)C(=O)Oc1cc(Cl)c(Cl)cc1Cl` the T/C (dose: 11.56 mg/kg/injection, vehicle: Klucel (hydroxypropylcellulose) (HPC)) was 105 % of control, the T/C (dose: 23.13 mg/kg/injection, vehicle: Klucel (hydroxypropylcellulose) (HPC)) was 101 % of control and the T/C (dose: 46.25 mg/kg/injection, vehicle: Klucel (hydroxypropylcellulose) (HPC)) was 122 % of control.
For `[N-]=[N+]=[N-]`, the T/C (dose: 1.5 mg/kg/injection, vehicle: saline) was 96 % of control, the T/C (dose: 3.0 mg/kg/injection, vehicle: saline) was 98 % of control and the T/C (dose: 6.0 mg/kg/injection, vehicle: saline) was 106 % of control. The T/C (dose: 12.0 mg/kg/injection, vehicle: saline) was 95 % of control.
`COc1ccc2c(c1)CCn1c(C)c(COC(=O)NC(C)C)c(COC(=O)NC(C)C)c1-2` was tested, and the T/C (dose: 3.12 mg/kg/injection, vehicle: distilled water + Tween-80) was 102 % of control, the T/C (dose: 6.25 mg/kg/injection, vehicle: distilled water + Tween-80) was 99 % of control and the T/C (dose: 12.5 mg/kg/injection, vehicle: distilled water + Tween-80) was 87 % of control.
`O=c1oc2c(O)c(O)cc3c(=O)oc4c(O)c(O)cc1c4c23` was tested, and the T/C [5] was 105 % of control, the T/C [6] was 105 % of control and the T/C [7] was 106 % of control. The T/C [8] was 110 % of control.
`CN(C)N=Nc1ccccc1` was tested, and the T/C [5] was 108 % of control and the T/C [6] was 115 % of control.
With `O=c1ncccn1[C@@H]1O[C@H](CO)[C@H](O)C1O` (stereo partly specified) the T/C [10] was 92 % of control and 96 % of control, the T/C [13] was 88 % of control and 101 % of control and the T/C [11] was 105 % of control. For the same compound, the T/C [12] was 108 % of control and 119 % of control and the T/C (dose: 400.0 mg/kg/injection, vehicle: saline) was 97 % of control and 116 % of control.
`NS(=O)(=O)OCCCCCCCOS(N)(=O)=O` was tested, and the T/C (dose: 12.5 mg/kg/injection, vehicle: saline with Tween-80) was 91 % of control, the T/C [1] was 98 % of control and the T/C [2] was 88 % of control.
With `CN(C)N=Nc1cccc(C(N)=O)c1` the T/C (dose: 10.0 mg/kg/injection, vehicle: Klucel (hydroxypropylcellulose) (HPC)) was 114 % of control and the T/C (dose: 20.0 mg/kg/injection, vehicle: Klucel (hydroxypropylcellulose) (HPC)) was 115 % of control.
In the case of `CCN1/C(=C/C=C/C=C\C=C\c2sc3ccc4ccccc4c3[n+]2CC)Sc2ccc3ccccc3c21`, the T/C [14] is reported as 104 % of control, the T/C [15] is reported as 100 % of control and 103 % of control and the T/C [16] is reported as 104 % of control. For the same compound, the T/C [17] was 98 % of control and the T/C (dose: 20.0 mg/kg/injection, vehicle: saline with Tween-80) was 103 % of control.
With `CCCCCCCC(=O)O[C@H]1[C@H]2[C@@H](CC1(C)C)C(=O)[C@]13O[C@H]1C(=O)[C@]1(CO1)[C@]23C` the T/C [14] was 100 % of control, the T/C [15] was 97 % of control and the T/C [16] was 102 % of control. For the same compound, the T/C [17] was 88 % of control.
`C/C(=N\N=C(/[Se])N1CC2CCC(CC2)C1)c1ccccn1` was tested, and the T/C (dose: 1.5 mg/kg/injection, vehicle: Klucel (hydroxypropylcellulose) (HPC)) was 106 % of control, the T/C (dose: 3.0 mg/kg/injection, vehicle: Klucel (hydroxypropylcellulose) (HPC)) was 103 % of control and the T/C [4] was 110 % of control.
For `CCOC(=O)c1[nH]c2cccc3c2c1CC(Br)C3=O` (stereo unspecified), the T/C (dose: 12.0 mg/kg/injection, vehicle: saline with Tween-80) was 102 % of control, the T/C [1] was 100 % of control and the T/C [2] was 99 % of control.
